According to ChEMBL document CHEMBL1201862, “PubChem BioAssay data set” (2004):
Active and inactive are the calls of the source.

Key:
[1] = biological target: T1, Heat shock factor protein 1 (Mus musculus, UniProt P38532); test: decrease of HSF1-responsive luciferase luminescence – cell-based, NIH3T3, dose retest, confirmation (AID 2382); type: functional;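 further: NIH3T3 fibroblasts with HSF1-driven luciferase reporter stressed by proteasome inhibitor MG132; luminescence from HSF1-driven luciferase expression after 8 hours of MG132 stress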
T1 sequence (P38532 whole entry): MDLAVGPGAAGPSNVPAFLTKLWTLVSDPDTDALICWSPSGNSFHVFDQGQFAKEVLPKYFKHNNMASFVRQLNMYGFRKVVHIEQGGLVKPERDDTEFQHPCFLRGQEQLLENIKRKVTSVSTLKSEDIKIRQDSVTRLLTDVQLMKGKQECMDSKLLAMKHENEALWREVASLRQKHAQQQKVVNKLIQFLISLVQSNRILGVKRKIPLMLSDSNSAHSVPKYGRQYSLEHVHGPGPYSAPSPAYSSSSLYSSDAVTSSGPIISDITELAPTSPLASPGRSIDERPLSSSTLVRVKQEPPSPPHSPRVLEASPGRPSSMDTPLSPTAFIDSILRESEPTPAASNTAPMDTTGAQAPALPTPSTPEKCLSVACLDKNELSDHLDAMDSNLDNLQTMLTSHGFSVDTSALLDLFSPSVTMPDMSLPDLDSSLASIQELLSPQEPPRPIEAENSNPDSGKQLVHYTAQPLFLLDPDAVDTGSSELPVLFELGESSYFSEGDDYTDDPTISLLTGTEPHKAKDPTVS

Caspase-3 = biological target: T2, Caspase-3 (Homo sapiens, UniProt P42574); test: activation of caspase-3 zymogen – biochemical, absorbance, dose response (AID 489014)
T2 sequence (P42574 whole entry): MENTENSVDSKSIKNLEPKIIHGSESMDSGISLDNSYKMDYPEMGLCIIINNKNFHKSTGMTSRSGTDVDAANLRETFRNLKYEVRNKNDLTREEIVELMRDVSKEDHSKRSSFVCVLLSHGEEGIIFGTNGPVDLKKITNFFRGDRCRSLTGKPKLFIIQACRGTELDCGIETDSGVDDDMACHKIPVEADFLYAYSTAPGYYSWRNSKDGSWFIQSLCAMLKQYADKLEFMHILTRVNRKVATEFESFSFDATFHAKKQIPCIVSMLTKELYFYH

Caspase-7 = biological target: T3, Caspase-7 (Homo sapiens, UniProt P55210); test: activation of caspase-7 zymogen – biochemical, absorbance, counter-screen for procaspase-3 activator project, dose response (AID 489013)
T3 sequence (P55210 whole entry): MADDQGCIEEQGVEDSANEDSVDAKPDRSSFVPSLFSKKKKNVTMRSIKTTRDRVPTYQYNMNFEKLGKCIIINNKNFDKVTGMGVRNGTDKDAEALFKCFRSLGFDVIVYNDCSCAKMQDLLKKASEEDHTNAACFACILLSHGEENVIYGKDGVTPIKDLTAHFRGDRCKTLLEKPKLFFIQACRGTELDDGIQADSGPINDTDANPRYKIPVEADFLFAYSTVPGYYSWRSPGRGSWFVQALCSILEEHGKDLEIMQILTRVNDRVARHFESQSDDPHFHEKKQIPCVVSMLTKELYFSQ

[2] = biological target: Melanin-concentrating hormone receptor 1 (Homo sapiens, UniProt Q99705); test: Late-stage fluorescence-based counterscreen for antagonists of the G-protein coupled receptor 7 (GPR7): cell-based dose response assay to identify antagonists of the melanin-concentrating hormone receptor 1 (MCHR1). [Related pubchem assays (depositor defined):AID1861, AID1880, AID1952, AID2148, AID2251, AID2257, AID485339]; type: functional;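 further: stimulated with 30 nM MCH peptide agonist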
Sequence of Melanin-concentrating hormone receptor 1 (Q99705 whole entry): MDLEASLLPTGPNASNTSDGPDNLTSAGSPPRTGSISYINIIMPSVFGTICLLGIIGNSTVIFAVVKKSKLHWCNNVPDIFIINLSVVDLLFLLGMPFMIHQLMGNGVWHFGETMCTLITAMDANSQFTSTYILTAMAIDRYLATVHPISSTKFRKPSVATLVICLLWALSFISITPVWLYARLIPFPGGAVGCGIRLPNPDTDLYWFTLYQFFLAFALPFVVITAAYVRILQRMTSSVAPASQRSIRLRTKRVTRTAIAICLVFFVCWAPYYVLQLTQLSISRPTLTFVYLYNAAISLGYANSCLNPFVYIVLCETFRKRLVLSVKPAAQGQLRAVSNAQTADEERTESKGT

[3] = biological target: T4, Neuropeptides B/W receptor type 1 (Homo sapiens, UniProt P48145); test: human NPBW1 receptor blockade, IC50 – cell-based, fluorescence, dose response, late-stage follow-up (AID 463251); type: functional
T4 sequence (P48145 whole entry): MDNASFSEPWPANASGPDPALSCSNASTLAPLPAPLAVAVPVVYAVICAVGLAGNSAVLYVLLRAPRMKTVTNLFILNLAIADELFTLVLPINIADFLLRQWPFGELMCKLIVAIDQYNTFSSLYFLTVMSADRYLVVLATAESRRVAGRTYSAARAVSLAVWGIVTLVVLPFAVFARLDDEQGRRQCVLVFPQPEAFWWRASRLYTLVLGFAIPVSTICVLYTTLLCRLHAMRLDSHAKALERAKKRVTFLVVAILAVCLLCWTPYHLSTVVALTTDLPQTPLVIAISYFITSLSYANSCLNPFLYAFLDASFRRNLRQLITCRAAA

[4] = biological target: G-protein coupled receptor 55 (Homo sapiens, UniProt Q9Y2T6); test: selective activators of receptor GPR55 – imaging, U2OS cells, beta-arrestin-GFP redistribution, primary screen (AID 1961); type: functional
Sequence of G-protein coupled receptor 55 (Q9Y2T6 whole entry): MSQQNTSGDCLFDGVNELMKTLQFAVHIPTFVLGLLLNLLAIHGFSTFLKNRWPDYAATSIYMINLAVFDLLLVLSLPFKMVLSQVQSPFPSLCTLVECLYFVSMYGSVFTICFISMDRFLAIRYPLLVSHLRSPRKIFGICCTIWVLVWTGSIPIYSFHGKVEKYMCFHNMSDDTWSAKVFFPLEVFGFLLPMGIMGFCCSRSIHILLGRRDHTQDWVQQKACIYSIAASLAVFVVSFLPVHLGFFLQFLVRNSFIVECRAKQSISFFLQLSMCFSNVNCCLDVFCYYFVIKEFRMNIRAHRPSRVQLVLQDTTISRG

Vero [5] = test: cells; type: functional, cell-based; conditions: Chlorocebus sabaeus
Vero [6] = test: cells; type: functional; conditions: Chlorocebus sabaeus
[7] = biological target: T5, Replicative DNA helicase DnaB (Mycobacterium tuberculosis, UniProt P9WMR3); test: DnaB intein splicing inhibitors, dose response, biochemical, cell-free fluorescence (AID 449749); type: functional
T5 sequence (P9WMR3 whole entry): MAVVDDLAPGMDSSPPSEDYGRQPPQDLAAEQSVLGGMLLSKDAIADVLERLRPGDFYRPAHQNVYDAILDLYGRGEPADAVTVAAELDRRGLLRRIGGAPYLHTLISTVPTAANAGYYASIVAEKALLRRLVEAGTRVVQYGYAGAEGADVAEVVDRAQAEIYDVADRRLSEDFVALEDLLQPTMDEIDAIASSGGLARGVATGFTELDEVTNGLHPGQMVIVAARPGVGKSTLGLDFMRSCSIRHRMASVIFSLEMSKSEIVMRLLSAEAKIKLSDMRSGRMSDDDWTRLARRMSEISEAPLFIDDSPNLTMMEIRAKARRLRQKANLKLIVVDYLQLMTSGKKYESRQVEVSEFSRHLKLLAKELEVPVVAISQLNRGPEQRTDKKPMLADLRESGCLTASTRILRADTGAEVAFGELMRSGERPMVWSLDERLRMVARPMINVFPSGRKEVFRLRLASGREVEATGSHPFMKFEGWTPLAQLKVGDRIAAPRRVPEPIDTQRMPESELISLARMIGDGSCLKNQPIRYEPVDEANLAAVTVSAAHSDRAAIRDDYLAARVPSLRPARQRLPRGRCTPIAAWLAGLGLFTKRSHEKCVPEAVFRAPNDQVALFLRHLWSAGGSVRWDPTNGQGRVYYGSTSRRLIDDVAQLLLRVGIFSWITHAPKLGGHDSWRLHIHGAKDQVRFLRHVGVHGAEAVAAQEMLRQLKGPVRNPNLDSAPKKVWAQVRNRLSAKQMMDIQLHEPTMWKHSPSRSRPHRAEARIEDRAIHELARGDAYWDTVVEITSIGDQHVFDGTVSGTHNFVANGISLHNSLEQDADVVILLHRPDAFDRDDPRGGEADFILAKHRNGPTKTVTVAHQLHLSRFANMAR

Protein RecA = biological target: T6, Protein RecA (Mycobacterium tuberculosis, UniProt P9WHJ3); test: Fluorescence Cell-Free Homogeneous Dose Retest to Identify Inhibitors of RecA-Intein Splicing Activity. [Related pubchem assays (depositor defined):AID2097, AID2223, AID489010, AID492950]; type: functional
T6 sequence (P9WHJ3 whole entry): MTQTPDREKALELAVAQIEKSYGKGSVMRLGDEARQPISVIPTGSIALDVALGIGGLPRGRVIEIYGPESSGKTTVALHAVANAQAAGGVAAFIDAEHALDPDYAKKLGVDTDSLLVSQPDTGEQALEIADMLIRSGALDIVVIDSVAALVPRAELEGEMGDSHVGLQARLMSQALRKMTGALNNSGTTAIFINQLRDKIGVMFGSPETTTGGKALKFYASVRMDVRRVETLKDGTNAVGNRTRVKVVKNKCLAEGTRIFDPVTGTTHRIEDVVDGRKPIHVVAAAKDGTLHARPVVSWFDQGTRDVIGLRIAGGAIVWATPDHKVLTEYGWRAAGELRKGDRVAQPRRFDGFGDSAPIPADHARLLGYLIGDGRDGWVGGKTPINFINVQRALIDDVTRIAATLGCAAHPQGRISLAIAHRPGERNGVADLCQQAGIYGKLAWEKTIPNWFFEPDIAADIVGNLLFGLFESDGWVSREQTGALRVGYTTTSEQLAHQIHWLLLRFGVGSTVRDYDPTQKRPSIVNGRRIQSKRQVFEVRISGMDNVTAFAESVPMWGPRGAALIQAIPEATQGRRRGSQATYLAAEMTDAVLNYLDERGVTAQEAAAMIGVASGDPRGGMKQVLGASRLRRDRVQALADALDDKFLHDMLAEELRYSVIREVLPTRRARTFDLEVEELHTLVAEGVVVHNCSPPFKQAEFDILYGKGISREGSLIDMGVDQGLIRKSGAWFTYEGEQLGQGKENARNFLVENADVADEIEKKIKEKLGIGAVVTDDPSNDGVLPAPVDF

## Cc1c(Cc2ccccc2)sc(/N=C/c2c(O)ccc3ccccc23)c1C(N)=O
[1]
  EC50: > 195 µM (not active)
Caspase-3
  EC50: > 85.3 µM (inactive)
Caspase-7
  EC50: > 85.3 µM (inactive)

## Cc1ccc(C)c(CN2C(=O)c3ccccc3[S+]([O-])c3ccc(C(=O)N4CCN(c5ccccn5)CC4)cc32)c1 (stereo not drawn)
[4]
  EC50: 1.32 µM (active)
Vero [5]
  IC50: 2.51 µM (active)
Vero [6]
  CC50: 13.7 µM (active)

## Cc1ccc(C)c(-c2ccc(=O)n(Cc3cccc(Br)c3)n2)c1
[4]
  EC50: 3.48 µM (active)
[7]
  AC50: 4.88 µM (active)
Protein RecA
  EC50: 24.1 µM (active)

## O=C(C1CCCCN1Cc1ccc2ccccc2c1)N1CCN(c2ccc([N+](=O)[O-])cc2)CC1 (stereo not drawn)
[2]
  IC50: 3.1 µM (active)
[3]
  IC50: 4.1 µM (active)
